Laboratory results taken from patent publication US5028587A, “Mixed crystals of insulin and insulin derivatives” (Hoechst Aktiengesellschaft, priority 1987, dated 1991).

Tests used:
[1] = specific activity of the insulin used; settings: specific activity of the substance used for crystallization
[2] = isoelectric point by isoelectric focusing; format: physicochemical; settings: pH
Text: It is common to all these insulin derivatives that the additional positive charge(s) which is(are) located on the surface of the molecule confer on the molecule an isoelectric point which is displaced into the neutral range. Depending on the derivative, the isoelectric points measured by isoelectric focusing are from about 5.8 to about 8.5, in particular about 6.2 to about 8.2. This means that the derivatives are less soluble in the neutral range than is unmodified insulin, whose isoelectric point, and thus whose region of maximum insolubility, is at a pH of about 5.4, whereas it is normally in dissolved form in the neutral range.

[3] = cited from earlier work

Arg-B31 human insulin showed an activity [1] of 27 I.U./mg.

Work on Human insulin yielded an activity [1] of 27 I.U./mg.

In the case of insulin [unmodified insulin], the isoelectric point [2] is listed as “about 5.4” and the in vivo half-life [3] is listed as “about 7 minutes”.

For Arg2 -(B31-32) human insulin, the activity [1] was 27 I.U./mg.
